Results from publication PMC5570288, “Hot-spot identification on a broad class of proteins and RNA suggest unifying principles of molecular recognition” (PLoS ONE, 2017).

Target: T1, RecA (Escherichia coli, UniProt P0A7G6)
T1 construct: assay 'as previously described'; homo-oligomer
Assay: coupled ATPase assay, ADP to H2O2, amplex red / resorufin fluorescence
Format: biochemical

T1 sequence (P0A7G6 2-353): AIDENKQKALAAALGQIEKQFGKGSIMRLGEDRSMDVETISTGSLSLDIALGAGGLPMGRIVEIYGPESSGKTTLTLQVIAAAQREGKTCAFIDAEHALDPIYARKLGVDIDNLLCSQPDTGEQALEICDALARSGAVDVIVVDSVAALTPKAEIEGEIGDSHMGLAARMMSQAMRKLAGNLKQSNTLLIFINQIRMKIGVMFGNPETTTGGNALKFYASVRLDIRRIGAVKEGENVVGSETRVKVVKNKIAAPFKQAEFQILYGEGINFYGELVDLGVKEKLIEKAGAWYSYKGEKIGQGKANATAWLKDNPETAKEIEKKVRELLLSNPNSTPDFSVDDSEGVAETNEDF

## NCCc1cc(O)c(O)cc1O [6-hydroxydopamine]
  IC50: 23 µM
